What all share (format): physicochemical
Series [1] can be described thus: Solid form stability studies, 75% RH at 40° C. for one week (XRPD and HPLC). How it is done:
Solid form stability studies were performed on Form I-V freebase forms by weighing approximately 10-15 mg of the crystalline material into 4 mL vials and covering with a lab grade task wipe (Kimwipe). These vials were placed inside a stability chamber set at 75%±5% relative humidity (RH) at 40° C.±2° C., where they were left for one week (7 full days). The retrieved material was then analyzed by XRPD and HPLC. In each case, the initial material and tested material were identical by XRPD, with the exception of Form I freebase, where an extra peak at 5.8 °2θ in the initial material was absent after the stability test. HPLC purities of the tested material were essentially unchanged from those of the initial material.

The nature of series [2]: Dynamic Vapor Sorption (DVS). How it is done: DVS was performed using TA Instruments Q5000SA. The sample (5-15 mg) was loaded into a metallic quartz sample pan, suspended from a microbalance, and exposed to a humidified stream of nitrogen gas. Weight changes were relative to a matching empty reference pan opposite the sample, suspended from the microbalance. The sample was held for a minimum of 10 min at each level and only progressed to the next humidity level if there was <0.002% change in weight between measurements (interval: 5 s) or 45 min had elapsed (for 5-65% RH) or 2 h had elapsed (for 80 and 95% RH). Mass change by DVS is related to hygroscopicity.

The nature of series [3]: Second set of competitive slurry experiments (Form V vs Form I and Form II). How it is done: A second set of competitive slurry experiments was set up in three solvent systems and two temperatures to assess the relative stability of Form V freebase with respect to Form I freebase and Form II freebase. […] In all samples, the input seed patterns were observed less than 1 min after addition. […] After 7 days, the quantity of Form II freebase remaining in the RT acetonitrile sample was greatly diminished, though Form II freebase was still present in trace quantities.

SMILES strings stand for the structures. “Also recorded” adds a separate entry of the source.

Here are results for one compound from patent publication US12516060B2, “Solid freebase forms of 5-chloro-2-(4-((2-hydroxy-2-methylpropyl)amino)pyrido[3,4-d]pyridazin-1-yl)phenol for inhibiting NLRP3 and uses thereof” (Ventus Therapeutics U.S., Inc., priority 2023, dated 2026).

On to `CC(C)(O)CNc1nnc(-c2ccc(Cl)cc2O)c2ccncc12` [Form V freebase, 5-chloro-2-(4-((2-hydroxy-2-methylpropyl)amino)pyrido[3,4-d]pyridazin-1-yl)phenol], for which the “XRPD (tested material)” value in series [1] (75% ± 5% RH at 40° C. ± 2° C. for 1 week) is reported as “Form V”. The “Purity % a/a (tested material)” value in series [1] (HPLC, after 75% ± 5% RH at 40° C. ± 2° C. for 1 week) is given as 99.60 % a/a. Also, the “Purity % a/a (input material)” value in series [1] (HPLC, before stability test) is listed as 99.46 % a/a. Further, in series [1] (one-week at 75% RH and 40° C.), the “solid-form and chemical stability at elevated RH” value was “no form change or purity decrease”. Further, the “DVS mass change 5-95% RH (wt. %)” value in series [2] (5-95% RH) turned out to be 0.20 wt. %. In series [2] (DVS, 5-95% RH), the “water uptake, weight gain between 5-95% relative humidity (RH)” value was “about 0.20%”. Moreover, the hygroscopicity entry in series [2] (DVS, all adsorbed water lost during the drying cycle) was “slightly, hygroscopic”. For the same compound, the “relative hygroscopicity among the Forms studied by DVS” value in series [2] (Forms I-V) is listed as “least hygroscopic”. The “XRPD pre- and post-DVS” value in series [2] (form stability after DVS cycle) is listed as “remained unchanged”. Besides, in series [3] (acetonitrile, MeOH, acetone:water (7:3 vol.), RT and 50° C., 3 days), the “form observed by XRPD after 3 days” value is given as “the sole form observed in all experiments, except in acetonitrile at RT”. Also, in series [3] (second set of slurries, various solvent systems), the “relative (thermodynamic) stability vs Form I and Form II” value is “favored over both Form I and II freebase; also recorded: most thermodynamically stable form studied”.
